For data set [1] the following is noted: cited from earlier work.
The nature of data set [2]: Systemic toxicity, tolerability and body weight after intravenous injection (FIG. 3). Format: in vivo.
Procedure: All formulations were prepared as solutions (or suspensions) in 5% dextrose. Each dose contained 250 μg of DAB 4, DAB 16, DAB 32, QDAB8, respectively. The PAMAM dendrimer and linear PEI were given as dilutions of Superfect (100 μl per animal) and Exgen (9 μl per animal) respectively, in 5% dextrose solution.
(§4) Animals were injected intravenously (0.2 ml per injection) with the different formulations either once or alternatively on a schedule every other day (0.5 q.d.) over 10 days (every second day, 5 injection). […] Each group consisted of 5 animals (n=5). As a control DAB 16-DNA complexes were prepared as previously described [36] by mixing dendrimer and DNA (50 μg) at a 5:1 weight ratio in a 5% dextrose solution (200 μl/animal). Free plasmid DNA (50 μg) was given in 200 μL 5% dextrose. Animals were monitored at regular intervals, the tumour size was determined using callipers, and body weight measured and recorded.
Data set [3] relates to A431 epidermoid carcinoma (ATCC CRL-1555). Kind of data set: Established A431 xenografts, repeated injection every 2nd day over 10 days, long-term follow-up (FIGS. 6-8).
Procedure: A431 epidermoid carcinoma tumours were grafted into nude CD-1 mice and left to establish (˜5 mm). Animals were treated by injection of the relevant formulation every 2nd day over 10 days (5 injections). […] Tumour volume doubling time was measured as a surrogate endpoint as substantial tumour growth immediately precedes tumour related mortality.
All formulations were prepared as solutions (or suspensions) in 5% dextrose.
as §4
Data set [4] concerns C33a Human Cervix Carcinoma (ATCC HTB31) xenografts. Kind of data set: Established C33a xenografts, treatment q.2d 5x (FIG. 5). The data set is classed as in vivo, mice. Particulars: C33a cervix carcinomas, q.2d 5x i.v. How it is done: (§1) Female mice (CD1-nu, initial mean weight 20 g) were housed in groups of five in suspended plastic cages at 19-23° C. with a 12 h light-dark cycle. A conventional diet (Rat and Mouse Standard Expanded, B and K Universal, Grimston, UK) and water from the mains were available ad libidum. Experimental work was carried out in accordance with UK Home Office regulations and approved by the local ethics committee.
(§2) Tumour cells [LS174 Human Colorectal Adenocarcinoma (ATCC CL-188), A431 Epidermoid Carcinoma (ATCC CRL-1555), C33a Human Cervix Carcinoma (ATCC HTB31)] were grown as monolayers in 75 cm^2 flasks in Dulbecco's Modified Eagle's Medium (DMEM) supplemented with 10% (v/v) foetal bovine serum (FBS) and 1% (v/v) glutamine, in a humid atmosphere of 5% CO2 at 37° C. Medium was changed twice a week. Cells were subcultured every seven days by trypsin treatment and experiments were conducted when the cells were in exponential phase. […]
(§3) Animals were injected intravenously (0.2 ml per injection) with the different formulations either once or alternatively on a schedule every other day (0.5 q.d.) over 10 days (every second day, 5 injection). […] Animals were monitored at regular intervals, the tumour size was determined using callipers, and body weight measured and recorded. Expression of genes containined on nucleic acids complexed with the various polymers was measured as described previously.

For data set [5], the system named is LS174T Human Colorectal Adenocarcinoma (ATCC CCL-188) xenografts. Put plainly: Established LS174T xenografts, treatment q.2d 5x (FIG. 4). Format: in vivo, mice. Particulars: LS174T colorectal tumours, q.2d 5x i.v. How it is done: as §1, §2, §3
Data set [6] deals with A431 epidermoid carcinoma cells. Put plainly: Cytostatic effects of cationic polymers on tumour cells in vitro (FIG. 1). Particulars: lysis control. Format: cell-based. The protocol:
A431 epidermoid carcinoma cells were treated with various cationic polymers. PEI, Superfect and various DAB polymers were added to the culture medium at concentrations of 0.45 μL/mL, 5 μL/mL and 12.5 μg/mL respectively for the duration of the experiment.

“And” between values parts separate entries of the source, which are not always exact repeats. Identical values can stand only once.

In the case of `C[C@H](N)C(=O)O` [Alanine], the “pKa of the α-NH3+ group” value in data set [1] was 9.9.

With `N[C@@H](CC(=O)O)C(=O)O` [Aspartic acid], the “pKa of the α-NH3+ group” value in data set [1] is reported as 10.0.

On to `NCCCN(CCCN)CCCN(CCCCN(CCCN(CCCN)CCCN)CCCN(CCCN)CCCN)CCCN(CCCN)CCCN` [DAB8], for which the “time to death after i.v. injection” value in data set [2] lay in the range of 5 to 10 s.

In the case of `NCCCN(CCCN)CCCN(CCCN(CCCN)CCCN)CCCN(CCCCN(CCCN(CCCN(CCCN)CCCN)CCCN(CCCN)CCCN)CCCN(CCCN(CCCN)CCCN)CCCN(CCCN)CCCN)CCCN(CCCN(CCCN)CCCN)CCCN(CCCN)CCCN` [DAB16], the “survival of the treated mice” value in data set [3] (0.5 q.d. X5, long term experiment) is reported as “long term survival”. Besides, in data set [3] (0.5 q.d. X5, n=5), the “complete disappearance of tumours, 2 mice” value is 43 days and 51 days; the “start of decrease of the tumour size, 2 mice” value was found to be 23 days; the “start of decrease of the tumour size, all the mice” value was found to be 33 days. Also, in data set [3] (5 injections over 10 days, FIG. 7), the “long-term tumour growth delay (tumour volume doubling time as surrogate endpoint)” value is given as “improved long-term growth reduction”. The tumour growth entry in data set [3] (A431 epidermoid carcinoma model, q.2d 5x i.v.) is “inhibited tumour growth significantly”. Also, the tumour growth result in data set [4] is recorded as “inhibited tumour growth significantly”. Also, the tumour growth result in data set [5] is reported as “inhibited tumour growth significantly”.

As for `N[C@@H](CO)C(=O)O` [Serine], the “pKa of the α-NH3+ group” value in data set [1] is 9.1.

triton X: the cell number entry in data set [6] is “decrease in cell number consistent with cell lysis”.

The record behind these values is patent US20080267903A1, “Bioactive Polymers” (priority 2004, published 2008).
